13 molecules from US20230416329A1, “A PEPTIDE WITH DISULFIDE BONDS AND INHIBITORY ACTIVITY AGAINST SERINE PROTEASES, DERIVED HYBRID PEPTIDES THEREOF, AND USES THEREOF” (INSTITUTE OF MATERIA MEDICA , CHINESE ACADEMY OF MEDICAL …, priority 2020, published 2023) can be followed below.

This assay has as its target T1, bovine trypsin (Bos taurus, UniProt P00760).
T1 sequence (P00760 24-246): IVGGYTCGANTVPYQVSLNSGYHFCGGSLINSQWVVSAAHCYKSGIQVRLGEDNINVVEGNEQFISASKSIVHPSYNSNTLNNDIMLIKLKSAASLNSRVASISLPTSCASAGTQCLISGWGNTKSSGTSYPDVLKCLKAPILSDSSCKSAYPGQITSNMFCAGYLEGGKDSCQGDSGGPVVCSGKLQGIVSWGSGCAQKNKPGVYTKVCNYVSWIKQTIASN
Kind of assay: Trypsin inhibitory activity of peptides (BApNA hydrolysis, OD405; IC50, Ki, residual activity). Format: biochemical. The note with it: for pIC50: trypsin 50 nM, BApNA 1.22 mM, read-out: IC50. The gist of the method: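 Trypsin (50 nM final) preincubated with peptides at 37 °C in 50 mM Tris-HCl pH 7.8, 20 mM CaCl2; BApNA added (1.22 mM final), 260 min at 37 °C, then OD405 read. Residual activity from enzyme-only and substrate-only controls; IC50 fitted and converted to Ki via Ki=IC50/(1+S/Km), Km measured separately for BApNA.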

[1] abbreviates: Ki=IC50/(1+S/Km), Km 0.33 mM, read-out: Ki.

pIC50, pKi: −log10 of the molar value. Like-named read-outs stand apart in the source and are kept apart here. Bridge positions count the residues as written; N and C are the ends. Square brackets hold non-standard residues; d marks the D form. Peptide text beside a SMILES is read from it. hCys = N[C@@H](CCS)C(=O)O

For `CC[C@H](C)[C@@H]1NC(=O)[C@@H]2CCCN2C(=O)[C@@H]2CCCN2C(=O)[C@H]([C@@H](C)CC)NC(=O)[C@H](CO)NC(=O)[C@H](CCCNC(=N)N)NC(=O)[C@H]([C@@H](C)O)NC(=O)[C@H](C)NC(=O)[C@H](CCCNC(=N)N)NC(=O)CNC(=O)[C@@H](N)CSSC[C@@H](C(=O)N[C@@H](Cc2ccc(O)cc2)C(=O)O)NC1=O` [BT18] (H-CGRATRSIPPICY-OH; disulfide 1-12; N-terminus and C-terminus assumed), the “inhibitory activity against trypsin (in words)” value (from here on “inhibitory activity”) is listed as “significant impact on their anti-trypsisn activities”.

`CC[C@H](C)[C@@H]1NC(=O)[C@@H]2CCCN2C(=O)[C@@H]2CCCN2C(=O)[C@H]([C@@H](C)CC)NC(=O)[C@H](CO)NC(=O)[C@H](CCCCN)NC(=O)[C@H]([C@@H](C)O)NC(=O)[C@H](C)NC(=O)[C@H](CCCNC(=N)N)NC(=O)[C@H](C)NC(=O)[C@@H](N)CSSC[C@@H](C(=O)N[C@@H](Cc2ccccc2)C(=O)O)NC1=O` [BT67] (H-CARATKSIPPICF-OH; disulfide 1-12): the “inhibitory activity” value is reported as “higher trypsin inhibitory activities” and the pIC50 was 7.30. Besides, the pKi under setting [1] was 8.00. The “inhibitory activity” value (listed as SEQ ID NO: 67) is “excellent trypsin inhibitory activities”. For the setting “peptide 0.000098 μM”, the Residual trypsin activity was determined as 107.0 ± 5.5%. Under “peptide 0.00098 μM”, the Residual trypsin activity is on record as 104.4 ± 3.9%. Besides, the Residual trypsin activity (peptide 0.0098 μM) is 102.0 ± 2.4%. Moreover, the Residual trypsin activity (peptide 0.0488 μM) was 49.6 ± 2.8%. The Residual trypsin activity (peptide 0.0585 μM) was 39.9 ± 1.7%. For the same molecule, the Residual trypsin activity (peptide 0.07317 μM) turned out to be 8.1 ± 2.5%. Moreover, for the setting “peptide 0.098 μM”, the Residual trypsin activity stood at 1.5 ± 0.3%. Also, the Residual trypsin activity (peptide 0.98 μM) is given as 0.1 ± 0.2%. In addition, the Residual trypsin activity (peptide 9.76 μM) stood at 0.1 ± 0.1%.

Consider `CC[C@H](C)[C@@H]1NC(=O)[C@H](C)NC(=O)[C@@H]2CCCN2C(=O)[C@H](CC(C)C)NC(=O)[C@H](CO)NC(=O)[C@H](CCCCN)NC(=O)[C@H]([C@@H](C)O)NC(=O)[C@H](C)NC(=O)[C@H](CCCNC(=N)N)NC(=O)CNC(=O)[C@@H](N)CSSC[C@@H](C(=O)N[C@@H](Cc2ccccc2)C(=O)O)NC1=O` [BT16] (H-CGRATKSLPAICF-OH; disulfide 1-12; C-terminus assumed), for which the “inhibitory activity” value is “reduced their anti-trypsin activities”. Under setting [1], the pKi is 6.72. Further, under “listed as SEQ ID NO: 16”, the “inhibitory activity” value is on record as “excellent trypsin inhibitory activities”. Also, the Residual trypsin activity (peptide 0.00488 μM) stood at 95.4 ± 4.3%. In addition, the Residual trypsin activity (peptide 0.0098 μM) worked out at 96.1 ± 0.6%. The Residual trypsin activity (peptide 0.0195 μM) is listed as 101.7 ± 1.2%. For the setting “peptide 0.390 μM”, the Residual trypsin activity was 88.4 ± 2.0%. Further, the Residual trypsin activity (peptide 0.780 μM) was found to be 59.7 ± 3.2%. Besides, the Residual trypsin activity (peptide 0.98 μM) stood at 42.2 ± 3.3%. For the setting “peptide 2.439 μM”, the Residual trypsin activity turned out to be 0.8 ± 0.1%. Where the note is “peptide 4.88 μM”, the Residual trypsin activity was 0.0 ± 0.2%.

On to `CC[C@H](C)[C@@H]1NC(=O)[C@@H]2CCCN2C(=O)[C@@H]2CCCN2C(=O)[C@H]([C@@H](C)CC)NC(=O)[C@H](CO)NC(=O)[C@H](CCCCN)NC(=O)[C@H]([C@@H](C)O)NC(=O)[C@H](C)NC(=O)[C@H](CCCNC(=N)N)NC(=O)CNC(=O)[C@@H](N)CSSC[C@@H](C(=O)O)NC(=O)[C@H](Cc2ccccc2)NC1=O` [BT30] (H-CGRATKSIPPIFC-OH; disulfide 1-13 (inferred); N-terminus and C-terminus assumed), for which the pIC50 was less than 4.30.

On to `CC[C@H](C)[C@@H]1NC(=O)[C@@H]2CCCN2C(=O)[C@@H]2CCCN2C(=O)[C@H]([C@@H](C)CC)NC(=O)[C@H](CO)NC(=O)[C@H](CCCCN)NC(=O)[C@H]([C@@H](C)O)NC(=O)[C@H](C)NC(=O)[C@H]([C@@H](C)O)NC(=O)CNC(=O)[C@@H](N)CSSC[C@@H](C(=O)N[C@@H](CC(N)=O)C(=O)O)NC1=O` [BT24] (H-CGTATKSIPPICN-OH; disulfide 1-12; N-terminus and C-terminus assumed), for which the “inhibitory activity” value is recorded as “significant impact on their anti-trypsisn activities”.

Consider `CC[C@H](C)[C@@H]1NC(=O)[C@@H]2CCCN2C(=O)[C@@H]2CCCN2C(=O)[C@H]([C@@H](C)CC)NC(=O)[C@H](CO)NC(=O)[C@H](CCCCN)NC(=O)[C@H]([C@@H](C)O)NC(=O)CNC(=O)[C@H](CCCNC(=N)N)NC(=O)CNC(=O)[C@@H](N)CSSC[C@@H](C(=O)N[C@@H](Cc2ccccc2)C(=O)O)NC1=O` [BT60] (H-CGRGTKSIPPICF-OH; disulfide 1-12), for which the “inhibitory activity” value is given as “excellent trypsin inhibitory activities”. For the same molecule, the pKi under setting [1] was 7.05.

For the molecule `CC[C@H](C)[C@@H]1NC(=O)[C@H](CO)NC(=O)[C@H](CCCCN)NC(=O)[C@H]([C@@H](C)O)NC(=O)[C@H](Cc2c[nH]c3ccccc23)NC(=O)[C@H](CCCNC(=N)N)NC(=O)CNC(=O)[C@@H](N)CSSC[C@@H](C(=O)O)NC(=O)[C@H](Cc2ccccc2)NC(=O)[C@H](C)NC(=O)[C@@H]2CCCN2C(=O)[C@@H]2CCCN2C1=O` [BT39] (H-CGRWTKSIPPAFC-OH; disulfide 1-13 (inferred); N-terminus and C-terminus assumed), the pIC50 is less than 4.30.

On to `CC[C@H](C)[C@@H]1NC(=O)[C@@H]2CCCN2C(=O)[C@@H]2CCCN2C(=O)[C@H]([C@@H](C)CC)NC(=O)[C@H](CO)NC(=O)[C@H](CCCCN)NC(=O)[C@H]([C@@H](C)O)NC(=O)[C@H](C)NC(=O)[C@H](CCCNC(=N)N)NC(=O)CNC(=O)[C@@H](N)CCSSCC[C@@H](C(=O)O)NC(=O)CNC(=O)[C@H](Cc2ccccc2)NC(=O)[C@H](C)NC1=O` [BT33] (H-[hCys]GRATKSIPPIAFG[hCys]-OH; disulfide 1-15; N-terminus assumed), for which the “inhibitory activity” value was “still maintained good inhibitory activity against trypsin”.

Consider `CC[C@H](C)[C@@H]1NC(=O)[C@@H]2CCCN2C(=O)[C@@H]2CCCN2C(=O)[C@H]([C@@H](C)CC)NC(=O)[C@H](CO)NC(=O)[C@H](CCCCN)NC(=O)[C@H]([C@@H](C)O)NC(=O)CNC(=O)[C@H](CCCCN)NC(=O)[C@H](C)NC(=O)CNC(=O)[C@@H](N)CSSC[C@@H](C(=O)N[C@@H](CC(=O)O)C(=O)O)NC(=O)[C@H](Cc2ccccc2)NC(=O)CNC1=O` [BT4] (H-CGAKGTKSIPPIGFCD-OH; disulfide 1-15 (inferred); N-terminus and C-terminus assumed), for which the pIC50 is less than 4.30.

With `CC[C@H](C)[C@@H]1NC(=O)[C@@H]2CCCN2C(=O)[C@@H]2CCCN2C(=O)[C@H]([C@@H](C)CC)NC(=O)[C@H](CO)NC(=O)[C@H](CCCCN)NC(=O)[C@H]([C@@H](C)O)NC(=O)[C@H](C)NC(=O)[C@H](C)NC(=O)CNC(=O)[C@@H](N)CSSC[C@@H](C(=O)N[C@@H](Cc2ccccc2)C(=O)N2CCC[C@H]2C(=O)N[C@@H](CC(=O)O)C(=O)O)NC1=O` [BT7] (H-CGAATKSIPPICFPD-OH; disulfide 1-12; N-terminus and C-terminus assumed), the “inhibitory activity” value is “enhanced trypsin inhibitory activity”. Besides, the Residual trypsin activity (peptide 0.000098 μM) was 103.5 ± 1.6%. Also, the Residual trypsin activity (peptide 0.0002439 μM) was 107.8 ± 3.2%. Besides, where the note is “peptide 0.000488 μM”, the Residual trypsin activity came to 97.9 ± 4.3%. Also, under “peptide 0.0488 μM”, the Residual trypsin activity is recorded as 95.2 ± 1.1%. Also, the Residual trypsin activity (peptide 0.2439 μM) is recorded as 48.5 ± 5.3%. The Residual trypsin activity (peptide 0.98 μM) was 5.7 ± 1.7%. Also, the Residual trypsin activity (peptide 1.463 μM) was determined as 2.9 ± 1.1%. In addition, the Residual trypsin activity (peptide 1.95 μM) was found to be 1.5 ± 0.3%. For the same molecule, for the setting “read-out: inhibition constant (Ki) towards trypsin”, the pKi was 7.30.

`CC[C@H](C)[C@@H]1NC(=O)[C@H](CCCCN)NC(=O)[C@@H]2CCCN2C(=O)[C@@H](NC(=O)[C@H](CCCNC(=N)N)NC(=O)CN)CSSC[C@@H](C(=O)N[C@@H](Cc2ccccc2)C(=O)O)NC(=O)[C@H](CCCNC(=N)N)NC(=O)[C@H](CCC(N)=O)NC(=O)[C@H](CC(C)C)NC1=O` [BT43] (H-GRCPKILQRCF-OH; disulfide 3-10): the pIC50 was less than 4.30.

Turning to `CC[C@H](C)[C@@H]1NC(=O)[C@@H]2CCCN2C(=O)[C@@H]2CCCN2C(=O)[C@H]([C@@H](C)CC)NC(=O)[C@H](CO)NC(=O)[C@H](CCCCN)NC(=O)[C@H]([C@@H](C)O)NC(=O)[C@H](C)NC(=O)[C@H](CCCNC(=N)N)NC(=O)[C@H](CCCNC(=N)N)NC(=O)[C@@H](N)CSSC[C@@H](C(=O)N[C@@H](Cc2ccccc2)C(=O)O)NC1=O` [BT76] (H-CRRATKSIPPICF-OH; disulfide 1-12; N-terminus and C-terminus assumed), the “inhibitory activity” value is “excellent trypsin inhibitory activities” and the pIC50 is 7.30. The pKi under setting [1] was 8.00.

On to `CC[C@H](C)[C@@H]1NC(=O)[C@@H]2CCCN2C(=O)[C@@H]2CCCN2C(=O)[C@H]([C@@H](C)CC)NC(=O)[C@H](CO)NC(=O)[C@H](CCCCN)NC(=O)[C@H]([C@@H](C)O)NC(=O)[C@H](CC(C)C)NC(=O)[C@H](CCCNC(=N)N)NC(=O)CNC(=O)[C@@H](N)CSSC[C@@H](C(=O)N[C@@H](Cc2ccccc2)C(=O)O)NC1=O` [BT48] (H-CGRLTKSIPPICF-OH; disulfide 1-12; N-terminus and C-terminus assumed), for which the pKi under setting [1] was 7.40.
